Measurements reported in patent publication US20050219340A1, “Actinic ray curable ink composition, image forming method and ink-jet recording apparatus using the same” (KONICA MINOLTA MEDICAL & GRAPHIC, INC., priority 2004, published 2005).

Experiment: physchem
Procedure: P(O/W), as described in the present invention, refers to the partition coefficient between 1-octanol and water and is as defined for the value which is treated as information to judge accumulativeness in the bodies of fish and shellfish, in the course of registration of new compounds, to conform in the Law Concerning Examination and Regulation of Manufacture etc. of Chemical Substances (a Japanese law), and is represented by the formula below; P(O/W)=CO/CW wherein CO represents the concentration (in mg/L) of a compound in the 1-octanol layer, while CW represents the concentration (in mg/L) of the above compound in the water layer.

logP | Structure (SMILES)
0.1 | COc1ccc([S+](c2ccc(OC)cc2)c2ccc(OC)cc2)cc1 [Compound S-1]
0.12 | COc1ccc([S+](c2ccc(C)cc2)c2ccc(OC)cc2)cc1 [Compound S-2]
0.12 | COc1ccc([S+](c2ccc(C)cc2)c2ccc(C)cc2)cc1 [Compound S-3]
0.15 | COc1ccc([S+](c2ccc(OC)cc2)c2ccc(Oc3ccc(C)cc3)cc2)cc1 [Compound S-4]
